# Results from patent publication US20120295917A1, “IMATINIB DICHL[…] ANTI-CANCER AGENT COMPRISING THE SAME” (CELLTRION PHARM, INC., priority 2009, published 2012).
# Assays:
# [1] = Hygroscopicity test (Karl-Fischer titrator); format: physicochemical; conditions: 40° C., relative humidity 75%
# [2] = tested on: colorectal adenocarcinoma cells (HT29); experiment: Cytotoxicity test (MTT); format: cell-based; conditions: for absorbance value based on 100% of the absorbance value for the control: HT29, 72 hours, MTT, 570 nm, mean of n=3
# Procedure: Using a medium containing 10% of fetal bovine serum (FBS), Rosewell Park Memorial Institute medium (RPMI) and 1% of penicillin/streptomycin, a 2×10^5 cells/ml suspension of colorectal adenocarcinoma cells (HT29) was prepared. The prepared suspension was seeded into each well of […] and cultured for 24 hours. Each sample was added to three wells and cultured (n=3).
# The medium was removed from each well after 24 hours and the wells were washed with phosphate buffered saline (PBS). […] 100 µl of each prepared solution was seeded into the wells and cultured at 37° C. for 72 hours.
# 10 μl of 3-(4,5-dimethylthiazol-2-yl)-2,5-diphenyltetrazolium bromide (MTT) was added to each sample and cultured for 4 hours. The absorbance of the solution was measured at 570 nm using Enzyme-linked immunosorbent assay (ELISA).
# [3] = accelerated condition for 28 days; in words
# Procedure: Particularly, each imatinib acid addition salt was stored in a sealed state under an accelerated condition (a temperature of 40° C. and a relative humidity of 75%), and after 0 (zero), 3, 7, 14 and 28 days, the remaining rate of the active ingredient was analyzed with a high performance liquid chromatography (HPLC).
# rats = conditions: cited from earlier work
amount of moisture contained in the compound ([1]; 2 hours) [weight %],amount of moisture contained in the compound ([1]; 8 hours) [weight %],amount of moisture contained in the compound ([1]; 24 hours) [weight %],amount of moisture contained in the compound ([1]; 3 days) [weight %],amount of moisture contained in the compound ([1]; Initial) [weight %],stability compared with imatinib methanesulfonate (β crystalline form) [3],Structure (SMILES),"anti-cancer effects compared with imatinib methanesulfonate (β crystalline form) ([2]; HT29 cytotoxicity, in words)",absorbance value based on 100% of the absorbance value for the control ([2]; 1 nM) [%],absorbance value based on 100% of the absorbance value for the control ([2]; 10 nM) [%],absorbance value based on 100% of the absorbance value for the control ([2]; 100 nM) [%],LD50 (the lethal dose causing death in 50% of rats on oral administration) (rats)
0.89,0.86,0.84,1.11,0.83,,"CS(=O)(=O)O.Cc1ccc(NC(=O)c2ccc(CN3CCN(C)CC3)cc2)cc1Nc1nccc(-c2cccnc2)n1 [Imatinib Methanesulfonate, reference compound]",,,,,
1.14,1.18,1.14,1.26,1.14,same or higher level of stability,Cc1ccc(NC(=O)c2ccc(CN3CCN(C)CC3)cc2)cc1Nc1nccc(-c2cccnc2)n1 [Imatinib dichloroacetate (crystalline form I)],more potent anti-cancer effects,,,,
0.83,0.87,0.86,0.95,0.85,same or higher level of stability,Cc1ccc(NC(=O)c2ccc(CN3CCN(C)CC3)cc2)cc1Nc1nccc(-c2cccnc2)n1 [Imatinib dichloroacetate (crystalline form II)],,,,,
,,,,,,O=C(O)C(Cl)Cl [dichloroacetic acid],,101.2,98.6,95.2,"2,820 mg/kg"
